# Source: the supplement of paper PMC10307832
# How the values were obtained:
# Experiment in all cases: relative viability (nuclei count vs DMSO), 5 days (fraction); higher = more cells survive
# NCI-H2228 = system: NCI-H2228
# In short: (§1)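 Relative viability equals treated-well nuclei counts divided by vehicle-well nuclei counts. Counts came from 4× images of lung cancer cell lines grown in 1536-well plates for 5 days after pin-tool dosing on the day after seeding. Dosing used one drug alone or a fixed anchor-drug dose plus five library-drug doses (not always all listed) in √10 steps, and values are medians of duplicate plates.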
# PC-14 = system: PC-14
# In short: as §1
# NCI-H460 = system: NCI-H460
# In short: as §1
# LCLC-103H = system: LCLC-103H
# In short: as §1
# NCI-H23 = system: NCI-H23
# In short: as §1
# NCI-H1650 = system: NCI-H1650
# In short: as §1
# HCC-44 = system: HCC-44
# In short: as §1
# LK-2 = system: LK-2
# In short: as §1
# LC-2-ad = system: LC-2-ad
# In short: as §1
# LU99A = system: LU99A
# In short: as §1
# SW 1573 = system: SW 1573
# In short: as §1
# 201T = system: 201T
# In short: as §1
# NCI-H596 = system: NCI-H596
# In short: as §1
# COR-L23 = system: COR-L23
# In short: as §1
# SW 900 = system: SW 900
# In short: as §1
# LCLC-97TM1 = system: LCLC-97TM1
# In short: as §1
# NCI-H1563 = system: NCI-H1563
# In short: as §1
# A-427 = system: A-427
# In short: as §1
# NCI-H2347 = system: NCI-H2347
# In short: as §1
# NCI-H1793 = system: NCI-H1793
# In short: as §1
# NCI-H727 = system: NCI-H727
# In short: as §1
# H3255 = system: H3255
# In short: as §1
smiles,measurement,setting,value
Cc1sc2c(c1C)C(c1ccc(Cl)cc1)=N[C@@H](CC(=O)OC(C)(C)C)c1nnc(C)n1-2 [JQ1] + N=C(N)NC(=N)NCCc1ccccc1 [Phenformin] (partner 250 µM),relative viability,NCI-H2228; first compound 0.04 µM,0.305
same,relative viability,NCI-H2228; first compound 0.1265 µM,0.275
same,relative viability,NCI-H2228; first compound 0.4 µM,0.297
same,relative viability,NCI-H2228; first compound 1.265 µM,0.181
same,relative viability,NCI-H2228; first compound 4 µM,0.207
same,relative viability,PC-14; first compound 0.04 µM,0.485
same,relative viability,PC-14; first compound 0.1265 µM,0.237
same,relative viability,PC-14; first compound 0.4 µM,0.432
same,relative viability,PC-14; first compound 1.265 µM,0.154
same,relative viability,PC-14; first compound 4 µM,0.167
same,relative viability,NCI-H460; first compound 0.04 µM,0.503
same,relative viability,NCI-H460; first compound 0.1265 µM,0.271
same,relative viability,NCI-H460; first compound 0.4 µM,0.123
same,relative viability,NCI-H460; first compound 1.265 µM,0.0422
same,relative viability,NCI-H460; first compound 4 µM,0.041
same,relative viability,LCLC-103H; first compound 0.04 µM,0.345
same,relative viability,LCLC-103H; first compound 0.1265 µM,0.308
same,relative viability,LCLC-103H; first compound 0.4 µM,0.371
same,relative viability,LCLC-103H; first compound 1.265 µM,0.268
same,relative viability,LCLC-103H; first compound 4 µM,0.28
same,relative viability,NCI-H23; first compound 0.04 µM,0.749
same,relative viability,NCI-H23; first compound 0.1265 µM,0.768
same,relative viability,NCI-H23; first compound 0.4 µM,0.812
same,relative viability,NCI-H23; first compound 1.265 µM,0.414
same,relative viability,NCI-H23; first compound 4 µM,0.592
same,relative viability,NCI-H1650; first compound 0.04 µM,0.309
same,relative viability,NCI-H1650; first compound 0.1265 µM,0.304
same,relative viability,NCI-H1650; first compound 0.4 µM,0.182
same,relative viability,NCI-H1650; first compound 1.265 µM,0.118
same,relative viability,NCI-H1650; first compound 4 µM,0.137
same,relative viability,HCC-44; first compound 0.04 µM,0.201
same,relative viability,HCC-44; first compound 0.1265 µM,0.184
same,relative viability,HCC-44; first compound 0.4 µM,0.161
same,relative viability,HCC-44; first compound 1.265 µM,0.125
same,relative viability,HCC-44; first compound 4 µM,0.111
same,relative viability,LK-2; first compound 0.04 µM,0.298
same,relative viability,LK-2; first compound 0.1265 µM,0.379
same,relative viability,LK-2; first compound 0.4 µM,0.21
same,relative viability,LK-2; first compound 1.265 µM,0.101
same,relative viability,LK-2; first compound 4 µM,0.147
same,relative viability,LC-2-ad; first compound 0.04 µM,0.537
same,relative viability,LC-2-ad; first compound 0.1265 µM,0.468
same,relative viability,LC-2-ad; first compound 0.4 µM,0.401
same,relative viability,LC-2-ad; first compound 1.265 µM,0.222
same,relative viability,LC-2-ad; first compound 4 µM,0.294
same,relative viability,LU99A; first compound 0.04 µM,0.776
same,relative viability,LU99A; first compound 0.1265 µM,0.35
same,relative viability,LU99A; first compound 0.4 µM,0.734
same,relative viability,LU99A; first compound 1.265 µM,0.303
same,relative viability,LU99A; first compound 4 µM,0.26
same,relative viability,SW 1573; first compound 0.04 µM,0.331
same,relative viability,SW 1573; first compound 0.1265 µM,0.304
same,relative viability,SW 1573; first compound 0.4 µM,0.402
same,relative viability,SW 1573; first compound 1.265 µM,0.231
same,relative viability,SW 1573; first compound 4 µM,0.233
same,relative viability,201T; first compound 0.04 µM,0.47
same,relative viability,201T; first compound 0.1265 µM,0.415
same,relative viability,201T; first compound 0.4 µM,0.408
same,relative viability,201T; first compound 1.265 µM,0.377
same,relative viability,201T; first compound 4 µM,0.344
same,relative viability,NCI-H596; first compound 0.04 µM,0.702
same,relative viability,NCI-H596; first compound 0.1265 µM,0.812
same,relative viability,NCI-H596; first compound 0.4 µM,0.829
same,relative viability,NCI-H596; first compound 1.265 µM,0.374
same,relative viability,NCI-H596; first compound 4 µM,0.348
same,relative viability,COR-L23; first compound 0.04 µM,0.385
same,relative viability,COR-L23; first compound 0.1265 µM,0.351
same,relative viability,COR-L23; first compound 0.4 µM,0.428
same,relative viability,COR-L23; first compound 1.265 µM,0.222
same,relative viability,COR-L23; first compound 4 µM,0.227
same,relative viability,SW 900; first compound 0.04 µM,0.462
same,relative viability,SW 900; first compound 0.1265 µM,0.519
same,relative viability,SW 900; first compound 0.4 µM,0.285
same,relative viability,SW 900; first compound 1.265 µM,0.187
same,relative viability,SW 900; first compound 4 µM,0.139
same,relative viability,LCLC-97TM1; first compound 0.04 µM,0.423
same,relative viability,LCLC-97TM1; first compound 0.1265 µM,0.42
same,relative viability,LCLC-97TM1; first compound 0.4 µM,0.446
same,relative viability,LCLC-97TM1; first compound 1.265 µM,0.328
same,relative viability,LCLC-97TM1; first compound 4 µM,0.203
same,relative viability,NCI-H1563; first compound 0.04 µM,0.672
same,relative viability,NCI-H1563; first compound 0.1265 µM,0.571
same,relative viability,NCI-H1563; first compound 0.4 µM,0.682
same,relative viability,NCI-H1563; first compound 1.265 µM,0.596
same,relative viability,NCI-H1563; first compound 4 µM,0.568
same,relative viability,A-427; first compound 0.04 µM,0.315
same,relative viability,A-427; first compound 0.1265 µM,0.241
same,relative viability,A-427; first compound 0.4 µM,0.341
same,relative viability,A-427; first compound 1.265 µM,0.276
same,relative viability,A-427; first compound 4 µM,0.228
same,relative viability,NCI-H2347; first compound 0.04 µM,0.332
same,relative viability,NCI-H2347; first compound 0.1265 µM,0.504
same,relative viability,NCI-H2347; first compound 0.4 µM,0.323
same,relative viability,NCI-H2347; first compound 1.265 µM,0.358
same,relative viability,NCI-H2347; first compound 4 µM,0.233
same,relative viability,NCI-H1793; first compound 0.04 µM,0.315
same,relative viability,NCI-H1793; first compound 0.1265 µM,0.382
same,relative viability,NCI-H1793; first compound 0.4 µM,0.35
same,relative viability,NCI-H1793; first compound 1.265 µM,0.274
same,relative viability,NCI-H1793; first compound 4 µM,0.378
same,relative viability,NCI-H727; first compound 0.04 µM,0.458
same,relative viability,NCI-H727; first compound 0.1265 µM,0.282
same,relative viability,NCI-H727; first compound 0.4 µM,0.368
same,relative viability,NCI-H727; first compound 1.265 µM,0.393
same,relative viability,NCI-H727; first compound 4 µM,0.343
same,relative viability,H3255; first compound 0.04 µM,0.349
same,relative viability,H3255; first compound 0.1265 µM,0.348
same,relative viability,H3255; first compound 0.4 µM,0.35
same,relative viability,H3255; first compound 1.265 µM,0.36
same,relative viability,H3255; first compound 4 µM,0.36
